# Reference: ChEMBL document CHEMBL1156260, “Through the "gatekeeper door": exploiting the active kinase conformation” (J Med Chem, 2010)
# Target: Serine/threonine-protein kinase PLK1 (Homo sapiens, UniProt P53350)
# Sequence (P53350 whole entry): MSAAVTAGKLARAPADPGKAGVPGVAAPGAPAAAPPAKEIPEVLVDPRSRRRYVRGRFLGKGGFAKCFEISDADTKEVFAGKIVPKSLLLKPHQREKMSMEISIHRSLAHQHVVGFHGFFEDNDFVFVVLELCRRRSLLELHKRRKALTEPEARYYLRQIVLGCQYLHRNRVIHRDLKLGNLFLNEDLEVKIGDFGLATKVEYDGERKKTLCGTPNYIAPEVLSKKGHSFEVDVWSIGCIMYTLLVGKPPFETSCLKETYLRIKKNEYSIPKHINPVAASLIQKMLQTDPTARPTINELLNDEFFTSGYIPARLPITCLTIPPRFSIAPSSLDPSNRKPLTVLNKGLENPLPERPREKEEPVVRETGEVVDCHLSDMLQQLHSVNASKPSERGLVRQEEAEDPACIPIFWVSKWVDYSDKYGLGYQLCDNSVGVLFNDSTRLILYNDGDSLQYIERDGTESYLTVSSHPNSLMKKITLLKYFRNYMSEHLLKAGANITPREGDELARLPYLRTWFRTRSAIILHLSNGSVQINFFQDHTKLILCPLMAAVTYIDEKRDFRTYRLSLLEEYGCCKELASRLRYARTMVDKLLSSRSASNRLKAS
smiles,measurement,value
Cc1cc(NC(=O)Nc2ncc(CCNc3cc(Nc4nnc[nH]4)ncn3)s2)c(C(F)(F)F)o1,IC50,720 nM
